Converted amounts (≈) assume the structure as drawn. The source made the active and inactive calls. No cut-off for these calls is given here. Where a SMILES comes first, the peptide text is derived from it.
Key:
Escherichia coli [1] = assay: Antibacterial activity against Escherichia coli ATCC 25922 incubated for 18 hrs in presence of 150 mM NaCl by visual inspection method; assay type: functional
Cell membrane [2] = assay: Induction of cell membrane damage in Staphylococcus aureus assessed as change in morphology by measuring numerous blebs covered membrane at 4 times MIC incubated for 5 hrs by SEM analysis; assay type: cell membranes
Staphylococcus aureus [3] = assay: Antibacterial activity against methicillin resistant Staphylococcus aureus 1 incubated for 18 hrs by visual inspection method; assay type: functional
Erythrocyte [4] = assay: Hemolytic activity in rat erythrocytes at 500 to 1000 ug/ml incubated for 1 hr; assay type: toxicity, cell-based; conditions: dose 500-1000 µg/ml
Staphylococcus aureus [5] = assay: Inhibition of biofilm formation in Staphylococcus aureus at 2 times MIC incubated for 24 hrs by crystal violet staining based assay; assay type: functional
Cell membrane [6] = assay: Induction of cell membrane damage in Staphylococcus aureus assessed as change in morphology by measuring roughened membrane at 4 times MIC incubated for 5 hrs by SEM analysis; assay type: cell membranes
Cell membrane [7] = assay: Induction of cell membrane damage in Escherichia coli assessed as change in morphology by measuring roughened membrane at 4 times MIC incubated for 5 hrs by SEM analysis; assay type: cell membranes
Acinetobacter baumannii [8] = assay: Antibacterial activity against Acinetobacter baumannii ATCC 19606 incubated for 18 hrs by visual inspection method; assay type: functional
Erythrocyte [9] = assay: Hemolytic activity in rat erythrocytes incubated for 1 hr; assay type: toxicity, cell-based
[10] = Toxicity in BALB/c mouse assessed as lung damage at 400 mg/kg, ip measured after 48 hrs by H and E staining based assay; assay type: organism-based; conditions: in vivo
Escherichia coli [11] = assay: Antibacterial activity against Escherichia coli ATCC 25922 incubated for 18 hrs in presence of 50 mM NaCl by visual inspection method; assay type: functional
Cell membrane [12] = assay: Induction of cell membrane damage in Escherichia coli assessed as change in morphology by measuring deformed membrane at 4 times MIC incubated for 5 hrs by SEM analysis; assay type: cell membranes
Escherichia coli [13] = assay: Antibacterial activity against ESBL Escherichia coli 1 incubated for 18 hrs by visual inspection method; assay type: functional
[14] = Toxicity in BALB/c mouse assessed as heart damage at 400 mg/kg, ip measured after 48 hrs by H and E staining based assay; assay type: organism-based; conditions: in vivo
Bacillus subtilis = assay: Antibacterial activity against Bacillus subtilis ATCC 23857 incubated for 18 hrs by visual inspection method; assay type: functional
Staphylococcus aureus [15] = assay: Inhibition of biofilm formation in Staphylococcus aureus at MIC incubated for 24 hrs by crystal violet staining based assay; assay type: functional
Staphylococcus aureus [16] = assay: Antibacterial activity against methicillin resistant Staphylococcus aureus 2 incubated for 18 hrs by visual inspection method; assay type: functional
[17] = Hemolytic activity in rat erythrocytes at 1000 ug/ml incubated for 1 hr; assay type: toxicity, cell-based, Erythrocyte; conditions: at 1000 µg/mL, read-out: Activity
[18] = Toxicity in BALB/c mouse assessed as kidney damage at 400 mg/kg, ip measured after 48 hrs by H and E staining based assay; assay type: organism-based; conditions: in vivo
Acinetobacter baumannii [19] = assay: Antibacterial activity against multidrug resistant Acinetobacter baumannii 5 incubated for 18 hrs by visual inspection method; assay type: functional
Acinetobacter baumannii [20] = assay: Antibacterial activity against multidrug resistant Acinetobacter baumannii 3 incubated for 18 hrs by visual inspection method; assay type: functional
Staphylococcus aureus [21] = assay: Antibacterial activity against Staphylococcus aureus ATCC 25923 incubated for 18 hrs in presence of 150 mM NaCl by visual inspection method; assay type: functional
Staphylococcus aureus [22] = assay: Inhibition of biofilm formation in Staphylococcus aureus at 16 times MIC incubated for 24 hrs by crystal violet staining based assay; assay type: functional
Cell membrane [23] = assay: Induction of inner membrane permeability in Escherichia coli ML-35 at 1 to 4 times MIC by ONPG dye based assay; assay type: cell membranes; conditions: TDE = time-dependent effect
Staphylococcus aureus [24] = assay: Antibacterial activity against methicillin resistant Staphylococcus aureus 3 incubated for 18 hrs by visual inspection method; assay type: functional
Escherichia coli [25] = assay: Antibacterial activity against Escherichia coli ATCC 25922 incubated for 18 hrs in presence of 100 mM NaCl by visual inspection method; assay type: functional
Escherichia coli [26] = assay: Antibacterial activity against ESBL Escherichia coli 4 incubated for 18 hrs by visual inspection method; assay type: functional
Staphylococcus aureus [27] = assay: Antibacterial activity against Staphylococcus aureus ATCC 25923 incubated for 18 hrs in presence of 50 mM NaCl by visual inspection method; assay type: functional
Staphylococcus aureus [28] = assay: Inhibition of biofilm formation in Staphylococcus aureus at 4 times MIC incubated for 24 hrs by crystal violet staining based assay; assay type: functional
Escherichia coli [29] = assay: Antibacterial activity against ESBL Escherichia coli 2 incubated for 18 hrs by visual inspection method; assay type: functional
[30] = Toxicity in BALB/c mouse assessed as spleen damage at 400 mg/kg, ip measured after 48 hrs by H and E staining based assay; assay type: organism-based; conditions: in vivo
Escherichia coli [31] = assay: Bactericidal activity against Escherichia coli at 4 times MIC measured after 2 hrs by time kill kinetic assay; assay type: functional
Staphylococcus aureus [32] = assay: Induction of resistance development against Staphylococcus aureus assessed as fold increase in MIC after 21 passages; assay type: functional
Cell membrane [33] = assay: Induction of cell membrane damage in Staphylococcus aureus assessed as decrease in red/green fluorescence ratio at 2 times MIC by DiOC2(3) fluorescent probe based assay; assay type: cell membranes
Escherichia coli [34] = assay: Antibacterial activity against ESBL Escherichia coli 5 incubated for 18 hrs by visual inspection method; assay type: functional
Cell membrane [35] = assay: Induction of inner membrane permeability in Escherichia coli ML-35 measured every 5 mins for 90 mins by ONPG dye based assay; assay type: cell membranes
Escherichia coli [36] = assay: Bactericidal activity against Escherichia coli at 2 times MIC measured after 3 hrs by time kill kinetic assay; assay type: functional, organism-based
[37] = Stability in Sprague-Dawley rat serum assessed as retention rate at 62.5 ug/ml measured after 2 hrs by RP-HPLC method; assay type: ADME, cell-free; conditions: at 62.5 µg/mL, read-out: Stability
Klebsiella pneumoniae = assay: Antibacterial activity against Klebsiella pneumoniae ATCC 700603 incubated for 18 hrs by visual inspection method; assay type: functional
Staphylococcus aureus [38] = assay: Bactericidal activity against Staphylococcus aureus at 2 times MIC measured after 6 hrs by time kill kinetic assay; assay type: functional, organism-based
Cell membrane [39] = assay: Induction of cell membrane damage in Staphylococcus aureus assessed as change in morphology by measuring deformed membrane at 4 times MIC incubated for 5 hrs by SEM analysis; assay type: cell membranes
Acinetobacter baumannii [40] = assay: Antibacterial activity against multidrug resistant Acinetobacter baumannii 1 incubated for 18 hrs by visual inspection method; assay type: functional
Cell membrane [41] = assay: Induction of cell membrane damage in Escherichia coli at 4 times MIC incubated for 30 mins by PI staining based confocal laser scanning microscopic analysis; assay type: cell membranes
Erythrocyte [42] = assay: Hemolytic activity in rat erythrocytes at 250 ug/ml incubated for 1 hr; assay type: toxicity, cell-based; conditions: dose 250 µg/ml
[43] = test system: Staphylococcus epidermidis; assay: Antibacterial activity against Staphylococcus epidermidis ATCC 12228 incubated for 18 hrs by visual inspection method; assay type: functional
Staphylococcus aureus [44] = assay: Inhibition of biofilm formation in Staphylococcus aureus at 8 times MIC incubated for 24 hrs by crystal violet staining based assay; assay type: functional
Cell membrane [45] = assay: Induction of cell membrane damage in Staphylococcus aureus assessed as decrease in red/green fluorescence ratio by DiOC2(3) fluorescent probe based assay; assay type: cell membranes
Staphylococcus aureus [46] = assay: Antibacterial activity against Staphylococcus aureus ATCC 25923 incubated for 18 hrs in presence of 100 mM NaCl by visual inspection method; assay type: functional
Acinetobacter baumannii [47] = assay: Antibacterial activity against multidrug resistant Acinetobacter baumannii 4 incubated for 18 hrs by visual inspection method; assay type: functional

SMILES: CC[C@H](C)[C@H](NC(=O)[C@H](Cc1ccccc1)NC(=O)[C@@H](N)Cc1c[nH]c2ccccc12)C(=O)N[C@H](C(=O)N[C@@H](Cc1c[nH]c2ccccc12)C(=O)N[C@@H](Cc1c[nH]cn1)C(=O)N[C@@H](Cc1c[nH]c2ccccc12)C(=O)N[C@@H](CCCNC(=N)N)C(=O)N[C@@H](CCCCN)C(=O)N[C@H](C(=O)N1CCC[C@H]1C(=O)N1CCC[C@H]1C(=O)N[C@@H](CCCCN)C(N)=O)[C@@H](C)CC)[C@@H](C)CC (H-WFIIWHWRKIPPK-NH2)
- MIC (Escherichia coli [1]): 15 µg/mL
- Activity (Cell membrane [2]): Active
- MIC (Staphylococcus aureus [3]): 7.5 µg/mL (≈ 4.15 µM)
- Activity (Erythrocyte [4]): Toxic
- inhibition (INH) (Staphylococcus aureus [5]): 20.76%
- Activity (Cell membrane [6]): Active
- Activity (Cell membrane [7]): Active
- MIC (Acinetobacter baumannii [8]): 7.5 µg/mL (≈ 4.15 µM)
- HC5 (Erythrocyte [9]): 416.15 µg/mL
- Activity [10]: Non-Toxic
- MIC (Escherichia coli [11]): 15 µg/mL
- Activity (Cell membrane [12]): Active
- MIC (Escherichia coli [13]): 15 µg/mL (≈ 8.3 µM)
- Activity [14]: Non-Toxic
- MIC (Bacillus subtilis): 3.75 µg/mL (≈ 2.08 µM)
- inhibition (INH) (Staphylococcus aureus [15]): 12.29%
- MIC (Staphylococcus aureus [16]): 7.5 µg/mL (≈ 4.15 µM)
- hemolysis at 1 h, 1000 ug/ml [17]: 10.8%
- Activity [18]: Non-Toxic
- MIC (Acinetobacter baumannii [19]): 7.5 µg/mL (≈ 4.15 µM)
- MIC (Acinetobacter baumannii [20]): 7.5 µg/mL (≈ 4.15 µM)
- MIC (Staphylococcus aureus [21]): 7.5 µg/mL
- inhibition (INH) (Staphylococcus aureus [22]): >90%
- Activity (Cell membrane [23]): Tde
- MIC (Staphylococcus aureus [24]): 7.5 µg/mL (≈ 4.15 µM)
- MIC (Escherichia coli [25]): 15 µg/mL
- MIC (Escherichia coli [26]): 15 µg/mL (≈ 8.3 µM)
- MIC (Staphylococcus aureus [27]): 7.5 µg/mL
- inhibition (INH) (Staphylococcus aureus [28]): 32.46%
- MIC (Escherichia coli [29]): 15 µg/mL (≈ 8.3 µM)
- Activity [30]: Non-Toxic
- Activity (Escherichia coli [31]): 100%
- fold change (FC) (Staphylococcus aureus [32]): 2
- Activity (Cell membrane [33]): Active
- MIC (Escherichia coli [34]): 15 µg/mL (≈ 8.3 µM)
- Activity (Cell membrane [35]): Dose-Dependent Effect
- Activity (Escherichia coli [36]): Active
- remaining at 2 h, 62.5 ug/ml [37]: 41.2%
- MIC (Klebsiella pneumoniae): 30 µg/mL (≈ 16.6 µM)
- Activity (Staphylococcus aureus [38]): Active
- Activity (Cell membrane [39]): Active
- MIC (Acinetobacter baumannii [40]): 7.5 µg/mL (≈ 4.15 µM)
- Activity (Cell membrane [41]): Active
- Activity (Erythrocyte [42]): Non-Toxic
- MIC [43]: 3.75 µg/mL (≈ 2.08 µM)
- inhibition (INH) (Staphylococcus aureus [44]): >90%
- Activity (Cell membrane [45]): Dose-Dependent Effect
- MIC (Staphylococcus aureus [46]): 7.5 µg/mL
- MIC (Acinetobacter baumannii [47]): 7.5 µg/mL (≈ 4.15 µM)

— ChEMBL document CHEMBL5614417, “Discovery of AMPs from random peptides via deep learning-based model and biological activity validation” (Eur J Med Chem, 2024)
